For one assay, the target named is T1, rat FPT (Rattus norvegicus, UniProt Q02293+Q04631).
T1 construct: made in house; host or cells: Sf9 insect cells
The assay is described as follows: PFT Inhibitory Activity (protein farnesyl transferase). The class given is biochemical. The conditions noted are these: 30° C., 30 minutes. How it is done: The protein farnesyl transferase (PFT) or farnesyl protein transferase (FPT) inhibitory activity of compounds of the present invention were assayed in HEPES buffer (pH 7.4) containing 5 mM potassium phosphate and 20 μM ZnCl2. The solution also contained 5 mM DTT (dithiothreitol), 5 mM MgCl2, and 0.1% PEG 8000. Assays were performed in 96-well plates (Wallec, Finland) and employed solutions composed of varying concentrations of a compound of the present invention in 10% DMSO (dimethylsulfoxide). Upon addition of both substrates, radiolabeled farnesyl pyrophosphate ([1^3 H], specific activity 15-30 Ci/mmol, final concentration 134 nM) and (biotinyl)-Ahe-Thr-Lys-Cys-Val-Ile-Met ([3aS[3a α, 4 β, 6a α]-hexahydro-2-oxo-1H-thieno[3,4-d]imidazole-5-pentanoicacid]-[7-aminoheptanoic acid]-Thr-Lys-Cys-Val-Ile-Met). Ahe is 7-aminoheptanoic acid, Thr is threonine, Lys is lysine, Cys is cysteine, Val is valine, Ile is isoleucine, and Met is methionine (final concentration 0.2 μM); the enzyme reaction was started by addition of SF9 affinity purified rat FPT. After incubation at 30° C. for 30 minutes, the reaction was terminated by diluting the reaction 2.5-fold with a stop buffer containing 1.5 M magnesium acetate, 0.2 M H3 PO4, 0.5% BSA (bovine serum albumin), and strepavidin beads (Amersham, Arlington Heights, Ill.) at a concentration of 1.3 mg/mL. After allowing the plate to settle for 30 minutes at room temperature, radioactivity was quantitated on a microBeta counter (Model 1450, Wallec, Finland). The assay was also carried out without 5 mM potassium phosphate.

Assay [1] relates to ras protein in ras-transformed cells. Description: Mobility Shift Assay (ras farnesylation in ras-transformed cells). The format is cell-based. Particulars: 18-hour incubation, read-out: Mobility Shift MED. How it is done: Twenty-four hours after planting 2×10^6 ras-transformed cells per treatment condition, the farnesylation inhibitor is added at varying concentrations. Following an 18-hour incubation period, cells are lysed in phosphate-buffered saline containing 1% Triton X-100, 0.5% sodium deoxycholate, and 0.1% SDS (sodium dodecyl sulfate), pH 7.4 in the presence of several protease inhibitors (PMSF (phenylmethylsulfonylfluoride), antipain, leupeptin, pepstatin A, and aprotinin all at 1 μg/mL). Ras protein is immunoprecipitated from the supernatants by the addition of 3 μg v-H-ras Ab-2 (Y13-259 antibody from Oncogene Science, Cambridge, Mass.). After overnight immunoprecipitation, 30 μL of a 50% protein G-Sepharose slurry (Pharmacia, Uppsala, Sweden) is added followed by 45-minute incubation. Pellets are resuspended in 2X tris-glycine loading buffer (Novex, San Diego, Calif.) containing 5% mercaptoethanol and then denatured by 5 minutes boiling prior to electrophoresis on 14% Tris-glycine SDS gels. Using Western transfer techniques, proteins are transferred to nitrocellulose membranes followed by blocking in blocking buffer. Upon overnight incubation with primary antibody (pan-ras Ab-2 from Oncogene Science, Cambridge, Mass.), an antimouse HRP (horseradish peroxidase) conjugate secondary antibody (Amersham) is employed for detection of the ras protein. Blots are developed using ECL (enhanced chemiluminescence) techniques (Amersham, Arlington Heights, Ill.).

The test system of assay [2] is EJ-1 human bladder carcinoma. Particulars: 100 mg/kg, xenografts in nude mice; cited from earlier work.
In assay [3] the test system is HT1080 human fibrosarcoma. The conditions noted are these: 100 mg/kg, xenografts in nude mice; cited from earlier work.
For the next assay, the system named is human colon carcinoma. The conditions noted are these: 100 mg/kg, xenografts in nude mice; cited from earlier work.
Assay [4] concerns human lung carcinoma with K-ras mutation and p53 deletion. Particulars: nude mice; cited from earlier work.
Assay [5] relates to mammary and salivary carcinomas in ras transgenic mice. Particulars: daily administration; cited from earlier work.
Setting [6] is: HEPES buffer pH 7.4 with 5 mM potassium phosphate, read-out: IC50 (μM) Hepes + 5 mM Phosphate.
The mark [7] stands for this setting: HEPES buffer pH 7.4 without 5 mM potassium phosphate, read-out: IC50 (μM) Hepes.

The source of these data is patent US6143766A, “Benzopyranone and quinolone inhibitors of ras farnesyl transferase” (Warner-Lambert Company, priority 2000, dated 2000).

By IC50 is commonly meant the concentration that inhibits the measured activity by half.

SMILES strings stand for the structures. Like-named read-outs stand apart in the source and are kept apart here. Where only a bound is given, the exact number is not on record here.

For the compound `Cn1c(=O)cc(-c2cccc(Cl)c2)c2cc(OC(Cn3ccnc3)c3ccccc3)ccc21` (stereo not drawn) [Example 1, 4-(3-Chloro-phenyl)-6-(2-imidazol-1-yl-1-phenyl-ethoxy)-1-methyl-1H-quinolin-2-one], the IC50 on rat FPT (setting [6]) was found to be 0.068 µM; on rat FPT (setting [7]), 0.064 µM. For the same compound, the minimal effective concentration in assay [1] worked out at 1 µM.
For the compound `Cn1c(=O)cc(-c2cccc(Cl)c2)c2ccc(OC(Cn3ccnc3)c3ccccc3)cc21` (stereo not drawn) [Example 2, 4-(3-Chloro-phenyl)-7-(2-imidazol-1-yl-1-phenyl-ethoxy)-1-methyl-1H-quinolin-2-one], the IC50 at rat FPT (setting [6]) came out at 0.99 µM; on rat FPT (setting [7]), 0.7 µM. Besides, the minimal effective concentration in assay [1] is above 1 µM.
As for `Cn1c(=O)cc(-c2cccc(Cl)c2)c2cc(OCc3c[nH]cn3)ccc21` [Example 3, 4-(3-Chloro-phenyl)-6-(1H-imidazol-4-ylmethoxy)-1-methyl-1H-quinolin-2-one], the IC50 on rat FPT (setting [6]) was found to be 3.6 µM; on rat FPT (setting [7]) it was 9.8 µM.
On to `Cn1cncc1C(Oc1ccc2c(c1)c(-c1cccc(Cl)c1)cc(=O)n2C)c1ccccc1` (stereo not drawn) [Example 4, 4-(3-Chloro-phenyl)-1-methyl-6-[(3-methyl-3H-imidazol-4-yl)-phenyl-methoxy]-1H-quinolin-2-one], for which the values for the IC50 at rat FPT (setting [6]) and on rat FPT (setting [7]) were 1.8 µM and 1.7 µM, respectively.
For the compound `O=c1cc(-c2ccccc2)c2ccc(OC(Cn3ccnc3)c3ccccc3)cc2o1` (stereo not drawn) [Example 5, 7-(2-Imidazol-1-yl-1-phenyl-ethoxy)-4-phenyl-chromen-2-one], the IC50 came to 0.8 µM on rat FPT (setting [6]) and 0.74 µM at rat FPT (setting [7]). Besides, the minimal effective concentration in assay [1] was determined as 0.2 µM.
For `O=c1cc(-c2cccc(Cl)c2)c2ccc(OC(Cn3ccnc3)c3ccccc3)cc2o1` (stereo not drawn) [Example 6, 4-(3-Chloro-phenyl)-7-(2-imidazol-1-yl-1-phenyl-ethoxy)-chromen-2-one], in that order: 0.32 µM, 0.29 µM and 1 µM.
In the case of `Cc1cccc(-c2cc(=O)oc3cc(OC(Cn4ccnc4)c4ccccc4)ccc23)c1` (stereo not drawn) [Example 7, 7-(2-Imidazol-1-yl-1-phenyl-ethoxy)-4-m-tolyl-chromen-2-one], the IC50 on rat FPT (setting [6]) was 1.4 µM; at rat FPT (setting [7]), 0.5 µM.
For the compound `Cc1ccccc1-c1cc(=O)oc2cc(OC(Cn3ccnc3)c3ccccc3)ccc12` (stereo not drawn) [Example 8, 7-(2-Imidazol-1-yl-1-phenyl-ethoxy)-4-o-tolyl-chromen-2-one], the IC50 at rat FPT (setting [6]) was determined as 0.92 µM; on rat FPT (setting [7]), 0.98 µM.
In the case of `O=c1cc(-c2ccc(Cl)cc2)c2ccc(OC(Cn3ccnc3)c3ccccc3)cc2o1` (stereo not drawn) [Example 9, 4-(4-Chloro-phenyl)-7-(2-imidazol-1-yl-1-phenyl-ethoxy)-chromen-2-one], the IC50 at rat FPT (setting [6]) came to 1.6 µM; at rat FPT (setting [7]), 1.8 µM.
For `O=c1cc(-c2ccccc2Cl)c2ccc(OC(Cn3ccnc3)c3ccccc3)cc2o1` (stereo not drawn) [Example 10, 4-(2-Chloro-phenyl)-7-(2-imidazol-1-yl-1-phenyl-ethoxy)-chromen-2-one], the results for the IC50 at rat FPT (setting [6]) and on rat FPT (setting [7]) were 0.29 µM and 0.14 µM, respectively. The minimal effective concentration in assay [1] is above 0.2 µM.
On to `Cc1ccc(-c2cc(=O)oc3cc(OC(Cn4ccnc4)c4ccccc4)ccc23)cc1` (stereo not drawn) [Example 11, 7-(2-imidazol-1-yl-1-phenyl-ethoxy)-4-p-totyl-chromen-2-one], for which the IC50 on rat FPT (setting [6]) came out at 0.52 µM; at rat FPT (setting [7]) it was 0.67 µM. Also, the minimal effective concentration in assay [1] was 1 µM.
For `C=CCc1c(OC(Cn2ccnc2)c2ccccc2)ccc2c(-c3ccccc3)cc(=O)oc12` (stereo not drawn) [Example 12, 8-allyl-7-(2-imidazol-1-yl-1-phenyl-ethoxy)-4-phenyl-chromen-2-one], in that order: 0.64 µM, 0.63 µM and above 1 µM.
Turning to `COC(=O)[C@H](CCSC)NC(=O)[C@H](/C=C\[C@@H](/C=C/[C@@H](N)CS)C(C)C)Cc1ccccc1` [Example B1086], the tumor growth inhibition result (in assay [2]; in assay [3]; in the assay with human colon carcinoma) was “inhibit tumor growth” each time.
For `CSCC[C@H](NC(=O)c1ccc(NC[C@@H](N)CS)cc1-c1ccccc1)C(=O)O` [FT1276], the “block of tumor growth” value in assay [4] is recorded as “selectively block tumor growth”.
As to `CC[C@H](C)[C@@H](CO[C@@H](Cc1ccccc1)C(=O)N[C@@H](CCS(C)(=O)=O)C(=O)OC(C)C)NC[C@@H](N)CS` [L-744,832], the tumor regression result in assay [5] is on record as “caused tumor regression”.
